Patent US20240300958A1, “COMPOUNDS AND THE USES AND PHARMACEUTICAL COMPOSITIONS THEREOF” (BEIJING YOUZHUJU NETWORK TECHNOLOGY CO. LTD., priority 2023, published 2024)

Legend:
[1] = biological target: DDR1 (Homo sapiens (Human), UniProt Q08345); test: DDR1 kinase inhibition assay (FAM-labeled peptide), IC50; format: biochemical
Protocol: 1× kinase base buffer (50 mM HEPES, pH 7.5, 0.0015% Brij-35) and a stop buffer (100 mM HEPES, pH 7.5, 0.015% Brij-35, 0.2% Coating Reagent #3, 50 mM EDTA) were prepared for testing kinases.
The compounds were diluted with 100% DMSO to 100 times the highest final inhibitor concentration required in the reaction. 100 μl of dilution of the compound was transferred to wells of a 96-well plate. For example, 100000 nM solution of the compound in DMSO was prepared in this step in case that an inhibitor concentration of 1000 nM is required. 100 μl of 100% DMSO was added to two empty wells of a 96-well plate for no compound control and no enzyme control. This plate was labeled as the source plate. A new 96-well plate with 5 μl of compound transferred from the source plate is used as an intermediate plate. 95 μl of 1× kinase buffer was added to each well of the intermediate plate. The compounds in the intermediate plate was mixed on a shaker for 10 minutes.
5 μl of sample in each well from the 96-well intermediate plate was transferred to the 384-well plate in duplicate. For example, well A1 of the 96-well plate was transferred to wells A2 and A1 of the 384-well plate, and well A2 of the 96-well plate was transferred to wells A3 and A4 of the 384-well plate, and so forth. 2.5× enzyme solution was prepared: 1× kinase basal buffer with added kinase. 2.5× peptide solution was prepared: 1× kinase basal buffer with added FAM-labeled peptide and ATP. To an assay plate already contained 5 μl of 10% dimethyl sulfoxide compound, 2.5× enzyme solution was transferred, and each well of the 384-well assay plate was added 10 μl of 2.5× enzyme solution. After incubation at room temperature for 10 minutes, 2.5× peptide solution was transferred to the assay plate. Each well of the 384-well assay plate was added 10 μl of 2.5× peptide solution. Kinase reaction and termination: incubation at 28° C. for a specified period followed by the addition of 25 μl stop buffer to stop the reaction. The data was read and collected.

[2] = biological target: phosphorylated DDR1 (p-DDR1) (Homo sapiens (Human), UniProt Q08345); test: Inhibition of phosphorylated DDR1 (p-DDR1) in T47D cells stimulated with rat tail collagen (western blot); format: cell-based
Chain of phosphorylated DDR1 (p-DDR1) (Q08345 19-913): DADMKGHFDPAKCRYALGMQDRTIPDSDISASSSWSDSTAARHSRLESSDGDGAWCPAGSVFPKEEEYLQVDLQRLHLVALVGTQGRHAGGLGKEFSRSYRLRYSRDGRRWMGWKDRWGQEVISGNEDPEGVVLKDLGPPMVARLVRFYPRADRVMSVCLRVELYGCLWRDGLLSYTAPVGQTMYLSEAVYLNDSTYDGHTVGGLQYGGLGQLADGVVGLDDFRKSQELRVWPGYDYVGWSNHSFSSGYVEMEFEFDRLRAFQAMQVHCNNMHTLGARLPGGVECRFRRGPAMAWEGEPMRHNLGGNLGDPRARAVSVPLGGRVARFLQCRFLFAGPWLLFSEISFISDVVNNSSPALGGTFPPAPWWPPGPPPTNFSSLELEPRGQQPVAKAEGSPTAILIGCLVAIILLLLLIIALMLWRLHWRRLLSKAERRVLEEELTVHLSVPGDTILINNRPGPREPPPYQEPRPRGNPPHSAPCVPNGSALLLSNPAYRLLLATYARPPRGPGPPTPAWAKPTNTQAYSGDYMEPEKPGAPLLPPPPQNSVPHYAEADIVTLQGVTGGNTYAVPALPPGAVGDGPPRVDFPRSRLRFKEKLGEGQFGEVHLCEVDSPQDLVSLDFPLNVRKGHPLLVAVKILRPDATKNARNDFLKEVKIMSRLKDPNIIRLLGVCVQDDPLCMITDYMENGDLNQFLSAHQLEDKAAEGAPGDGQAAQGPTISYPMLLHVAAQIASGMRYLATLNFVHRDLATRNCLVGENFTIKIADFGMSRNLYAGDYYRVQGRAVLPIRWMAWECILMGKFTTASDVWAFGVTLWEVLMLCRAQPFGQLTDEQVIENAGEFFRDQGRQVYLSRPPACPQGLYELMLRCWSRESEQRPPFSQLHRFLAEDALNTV
Protocol: Human breast ductal carcinoma cell line T47D cells were inoculated in a 6-well plate and incubated overnight at 37° C. and 5% CO2. After the cells are prepared, 2 μL of Compound C1 (DMSO solution of gradient concentrations) was added to a cell plate which was incubated at 37° C. and 5% CO2 for 24 hours. Rat tail collagen (capable of stimulating DDR1 phosphorylation) was added to the cell plate followed by incubation for 2 hours at 37° C. and 5% CO2. Harvest of cell lysates: culture medium was aspirated as much as possible at the end of the culture until the wells were almost dry. 200 μL of ice-cold lysis buffer was added. Lysate was collected into a 1.5 mL eppendorf tube through scraping. Brief vortex was followed by spin at 12000 rpm for 15 minutes in a refrigerated centrifuge. 5× protein electrophoresis loading buffer was added and then the sample was boiled. The sample supernatant was added to a SDS-PAGE gel, followed by electrophoresis, electrotransfer, blocking, primary antibody (anti-phospho-DDR1 antibody and anti-GAPDH antibody) incubation, washing, secondary antibody incubation, washing, and fluorescence development.

[3] = system: α-smooth muscle actin (α-SMA) expression; test: Inhibition of DDR1-mediated lung fibrosis (α-SMA expression) in hTGFβ1-stimulated MRC-5 cells (western blot); format: cell-based, Human; conditions: for Ratio of α-SMA to GAPDH / α-SMA signal: hTGFβ1 2.5 ng/ml
Protocol: Human embryonic lung fibroblast MRC-5 cells were inoculated in a 6-well plate and incubated overnight at 37° C. and 5% CO2. 2 μL of compound C1 (gradient concentration in DMSO solution) was added to a cell plate with prepared cells, and was incubated overnight at 37° C. and 5% CO2. hTGFβ1 (which can stimulate DDR1-mediated lung fibrosis manifested by up-regulation of α-smooth muscle actin (α-SMA) expression) was added to the cell plate and incubated at 37° C. and 5% CO2 for 2 hours. Harvest of cell lysates: culture medium was aspirated as much as possible at the end of the culture until the wells were almost dry. 200 μL of ice-cold lysis buffer was added. Lysate was collected into a 1.5 mL eppendorf tube through scraping. Brief vortex was followed by spinning at 12000 rpm for 15 minutes in a refrigerated centrifuge. 5× protein electrophoresis loading buffer was added and then the sample was boiled. The sample supernatant was added to a SDS-PAGE gel, followed by electrophoresis, electrotransfer, blocking, primary antibody (anti-α-SMA antibody and anti-GAPDH antibody) incubation, washing, secondary antibody incubation, washing, and fluorescence development.

Chain of DDR1 (Q08345 other isoform, or with tags, fused parts or gaps isoform Q08345-2): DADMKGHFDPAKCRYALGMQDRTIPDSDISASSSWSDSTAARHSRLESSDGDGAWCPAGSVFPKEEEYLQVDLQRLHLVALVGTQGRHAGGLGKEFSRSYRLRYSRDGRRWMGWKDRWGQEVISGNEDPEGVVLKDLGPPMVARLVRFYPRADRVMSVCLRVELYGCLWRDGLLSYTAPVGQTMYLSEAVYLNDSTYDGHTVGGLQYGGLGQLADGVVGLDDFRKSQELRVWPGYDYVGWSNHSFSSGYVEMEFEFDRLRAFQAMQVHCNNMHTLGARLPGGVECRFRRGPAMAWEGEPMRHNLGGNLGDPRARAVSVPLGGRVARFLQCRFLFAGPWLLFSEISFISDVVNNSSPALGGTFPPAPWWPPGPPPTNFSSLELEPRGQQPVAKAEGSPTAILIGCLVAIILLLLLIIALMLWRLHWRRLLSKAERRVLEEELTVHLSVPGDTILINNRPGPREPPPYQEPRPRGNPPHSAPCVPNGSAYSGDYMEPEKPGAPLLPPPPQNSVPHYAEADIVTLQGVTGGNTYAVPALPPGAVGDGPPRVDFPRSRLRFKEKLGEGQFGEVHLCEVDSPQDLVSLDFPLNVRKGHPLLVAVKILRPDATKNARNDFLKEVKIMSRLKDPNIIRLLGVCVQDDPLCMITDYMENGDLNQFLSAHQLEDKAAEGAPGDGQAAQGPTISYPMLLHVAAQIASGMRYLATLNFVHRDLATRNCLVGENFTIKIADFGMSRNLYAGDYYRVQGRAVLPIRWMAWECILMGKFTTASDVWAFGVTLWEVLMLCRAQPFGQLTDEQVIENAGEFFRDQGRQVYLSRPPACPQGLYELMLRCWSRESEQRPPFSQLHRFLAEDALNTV

- IC50 [1]: 23 nM
- Ratio of p-DDR1 to GAPDH ([2]; compound C1 1.5 nM): 0.3282
- inhibition at 0.0015 µM ([2]; compound C1 1.5 nM): 51.5%
- p-DDR1 signal ([2]; compound C1 1.5 nM): 490770
- Ratio of p-DDR1 to GAPDH ([2]; compound C1 4.6 nM): 0.2221
- inhibition at 0.0046 µM ([2]; compound C1 4.6 nM): 67.7%
- p-DDR1 signal ([2]; compound C1 4.6 nM): 350490
- Ratio of p-DDR1 to GAPDH ([2]; compound C1 13.7 nM): 0.3020
- inhibition at 0.0137 µM ([2]; compound C1 13.7 nM): 55.5%
- p-DDR1 signal ([2]; compound C1 13.7 nM): 417870
- Ratio of p-DDR1 to GAPDH ([2]; compound C1 41.1 nM): 0.4145
- inhibition at 0.0411 µM ([2]; compound C1 41.1 nM): 38.4%
- p-DDR1 signal ([2]; compound C1 41.1 nM): 583470
- Ratio of p-DDR1 to GAPDH ([2]; compound C1 123 nM): 0.2107
- inhibition at 0.123 µM ([2]; compound C1 123 nM): 69.4%
- p-DDR1 signal ([2]; compound C1 123 nM): 313140
- Ratio of p-DDR1 to GAPDH ([2]; compound C1 370 nM): 0.1244
- inhibition at 0.37 µM ([2]; compound C1 370 nM): 82.5%
- p-DDR1 signal ([2]; compound C1 370 nM): 164340
- Ratio of p-DDR1 to GAPDH ([2]; compound C1 1111 nM): 0.0363
- inhibition at 1.111 µM ([2]; compound C1 1111 nM): 95.9%
- p-DDR1 signal ([2]; compound C1 1111 nM): 51870
- Ratio of p-DDR1 to GAPDH ([2]; compound C1 3333 nM): 0.0183
- inhibition at 3.333 µM ([2]; compound C1 3333 nM): 98.7%
- p-DDR1 signal ([2]; compound C1 3333 nM): 27360
- Ratio of p-DDR1 to GAPDH ([2]; compound C1 10000 nM): 0.0094
- inhibition at 10 µM ([2]; compound C1 10000 nM): 100%
- p-DDR1 signal ([2]; compound C1 10000 nM): 14730
SMILES: Cc1ccc(C(=O)Nc2ccccn2)cc1C#Cc1cnc2cc(C3=CCCCC3)cnn12 [Compound C1, 3-{2-[7-(cyclohex-1-en-1-yl)imidazo[1,2-b]pyridazin-3-yl]ethynyl}-4-methyl-N-(pyridin-2-yl)benzamide]
- Inhibition of the phosphorylation of DDR1 at the cellular level (in words) [2]: can inhibit the phosphorylation of DDR1 at the cellular level
- Inhibition of DDR1-mediated lung fibrosis at the cellular level (in words) [3]: can inhibit DDR1-mediated lung fibrosis at the cellular level
- inhibition at 0.00244 µM ([3]; Homo sapiens, MRC5, hTGFβ1 2.5 ng/ml, compound C1 2.44 nM): 103%
- inhibition at 0.00977 µM ([3]; Homo sapiens, MRC5, hTGFβ1 2.5 ng/ml, compound C1 9.77 nM): 103%
- inhibition at 0.03906 µM ([3]; Homo sapiens, MRC5, hTGFβ1 2.5 ng/ml, compound C1 39.06 nM): 103%
- inhibition at 0.15625 µM ([3]; Homo sapiens, MRC5, hTGFβ1 2.5 ng/ml, compound C1 156.25 nM): 109%
- inhibition at 0.625 µM ([3]; Homo sapiens, MRC5, hTGFβ1 2.5 ng/ml, compound C1 625.00 nM): 48.2%
- inhibition at 2.5 µM ([3]; Homo sapiens, MRC5, hTGFβ1 2.5 ng/ml, compound C1 2500.00 nM): 11.7%
- Ratio of α-SMA to GAPDH ([3]; compound C1 2.44 nM): 1.1612
- α-SMA signal ([3]; compound C1 2.44 nM): 1390356
- Ratio of α-SMA to GAPDH ([3]; compound C1 9.77 nM): 1.1646
- α-SMA signal ([3]; compound C1 9.77 nM): 1386165
- Ratio of α-SMA to GAPDH ([3]; compound C1 39.06 nM): 1.1681
- α-SMA signal ([3]; compound C1 39.06 nM): 1304919
- Ratio of α-SMA to GAPDH ([3]; compound C1 156.25 nM): 1.2342
- α-SMA signal ([3]; compound C1 156.25 nM): 1353660
- Ratio of α-SMA to GAPDH ([3]; compound C1 625.00 nM): 0.5459
- α-SMA signal ([3]; compound C1 625.00 nM): 629772
- Ratio of α-SMA to GAPDH ([3]; compound C1 2500.00 nM): 0.1330
- α-SMA signal ([3]; compound C1 2500.00 nM): 4686
